The target of the experiment is T1, recombinant human dihydrofolate reductase (hDHFR) (Homo sapiens, UniProt P00374).
T1 construct: gene DHFR; commercial recombinant enzyme (R&D, Bio-Techne)
T1 sequence (P00374 1-187): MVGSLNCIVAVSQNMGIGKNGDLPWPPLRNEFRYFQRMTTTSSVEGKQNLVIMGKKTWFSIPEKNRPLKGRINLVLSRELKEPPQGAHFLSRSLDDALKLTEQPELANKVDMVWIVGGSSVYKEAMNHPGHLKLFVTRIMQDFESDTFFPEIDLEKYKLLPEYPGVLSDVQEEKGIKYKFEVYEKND
The experiment is described as follows: NADPH oxidation, absorbance at […] nm. The class given is biochemical.

One may read the IC50 as the point on the concentration scale where inhibition reaches its midpoint. For `CN(Cc1cnc2nc(N)nc(N)c2n1)c1ccc(C(=O)NCCCC(=O)O)cc1` [compound 4, 4], the IC50 was found to be 10 nM. With `CN(Cc1cnc2nc(N)nc(N)c2n1)c1ccc(C(=O)NCCS(=O)(=O)O)cc1` [compound 7, 7], the IC50 was found to be 3030 nM.

Regarding `CN(Cc1cnc2nc(N)nc(N)c2n1)c1ccc(C(=O)NCCCCCCCC(=O)O)cc1` [compound 6, 6], the concentration for half-maximal inhibition (IC50) is 1010 nM.

On to `CN(Cc1cnc2nc(N)nc(N)c2n1)c1ccc(C(=O)NCCCCCC(=O)O)cc1` [compound 5, 5], for which the IC50 was 1210 nM.

Values taken from paper PMC11308014 (ACS Omega, 2024).
